# Measurements published in patent US6613718B2, “Aryl ether derivatives and processes for their preparation and herbicidal and desiccant compositions containing them” (Ishihara Sangyo Kaisha, Ltd., priority 2001, dated 2003).
# How the values were obtained:
# Format in all cases: in vivo
# [1] = system: soybean (Glycine max L., var. Pella 86, SOY); test: Post-emerge greenhouse screening, crop safety (phytotoxicity rating); settings: 14 days after application
# How it was run: (§1)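 Greenhouse screen. Sowing preceded application by one day (pre-emergence) or 8-21 days (post-emergence). Doses spanned 15 to 1000 g ai/ha in acetone. Score at day 14: 0 no injury, 100 total kill.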
# [2] = system: upland rice (Oryza sp., var.Tebonnet, RICE); test: as above; settings: 14 days after application
# How it was run: as §1
# [3] = system: soybean (Glycine max L., var. Pella 86, SOY); test: Pre-emerge greenhouse screening, crop safety (phytotoxicity rating); settings: 14 days after application
# How it was run: as §1
# [4] = system: upland rice (Oryza sp., var.Tebonnet, RICE); test: as above; settings: 14 days after application
# How it was run: as §1
# [5] = system: field corn (Zea mays L., var. Dekalb 535, CORN); test: as above; settings: 14 days after application
# How it was run: as §1
# [6] = system: ivyleaf morningglory (Ipomoea hederacea, IPOHE); test: Post-emerge greenhouse herbicide activity screening, phytotoxicity rating; settings: 14 days after application
# How it was run: as §1
# [7] = system: large crabgrass (Digitaria sanguinalis, DIGSA); test: as above; settings: 14 days after application
# How it was run: as §1
# [8] = system: green foxtail (Setaria viridis, SETVI); test: as above
# How it was run: as §1
# [9] = system: lambsquarters (Chenopodium album, CHEAL); test: as above
# How it was run: as §1
# [10] = system: johnsongrass (Sorghum halepense, SORHA); test: as above; settings: 14 days after application
# How it was run: as §1
# [11] = system: redroot pigweed (Amaranthus retroflexus, AMARE); test: as above
# How it was run: as §1
# [12] = system: sicklepod (Cassia obtusifolia, CASOB); test: as above
# How it was run: as §1
# [13] = system: velvetleaf (Abutilon theophrasti, ABUTH); test: as above; settings: 14 days after application
# How it was run: as §1
# [14] = system: barnyardgrass (Echinochloa crus-galli, ECHCG); test: as above; settings: 14 days after application
# How it was run: as §1
# [15] = system: common ragweed (Ambrosia artemisiifolia L., AMBEL); test: as above
# How it was run: as §1
# [16] = system: field corn (Zea mays L., var. Dekalb 535, CORN); test: Post-emerge greenhouse screening, crop safety / corn selectivity (phytotoxicity rating); settings: for CORN crop damage, phytotoxicity rating (0-100 scale): 14 days after application
# How it was run: as §1
# [17] = system: ivyleaf morningglory (Ipomoea hederacea, IPOHE); test: Pre-emerge greenhouse herbicide activity screening, phytotoxicity rating; settings: 14 days after application
# How it was run: as §1
# [18] = system: large crabgrass (Digitaria sanguinalis, DIGSA); test: as above; settings: 14 days after application
# How it was run: as §1
# [19] = system: green foxtail (Setaria viridis, SETVI); test: as above; settings: 14 days after application
# How it was run: as §1
# [20] = system: lambsquarters (Chenopodium album, CHEAL); test: as above; settings: 14 days after application
# How it was run: as §1
# [21] = system: johnsongrass (Sorghum halepense, SORHA); test: as above; settings: 14 days after application
# How it was run: as §1
# [22] = system: redroot pigweed (Amaranthus retroflexus, AMARE); test: as above; settings: 14 days after application
# How it was run: as §1
# [23] = system: sicklepod (Cassia obtusifolia, CASOB); test: as above; settings: 14 days after application
# How it was run: as §1
# [24] = system: velvetleaf (Abutilon theophrasti, ABUTH); test: as above; settings: 14 days after application
# How it was run: as §1
# [25] = system: barnyardgrass (Echinochloa crus-galli, ECHCG); test: as above; settings: 14 days after application
# How it was run: as §1
# [26] = system: common ragweed (Ambrosia artemisiifolia L., AMBEL); test: as above; settings: 14 days after application
# How it was run: as §1
# [27] = 125 g ai/ha, 14 days after application
# [28] = 250 g ai/ha, 14 days after application
smiles,measurement,setting,value
Cn1c(=S)n(C)c(=O)n(-c2cc(Oc3ccccc3[N+](=O)[O-])c(Cl)cc2F)c1=O [Compound 2-17],"SOY crop damage, phytotoxicity rating (0-100 scale)",[1]; 125 g ai/ha,0
same,"SOY crop damage, phytotoxicity rating (0-100 scale)",[1]; 250 g ai/ha,25
same,"RICE crop damage, phytotoxicity rating (0-100 scale)",[2]; 125 g ai/ha,0
same,"RICE crop damage, phytotoxicity rating (0-100 scale)",[2]; 250 g ai/ha,0
same,"SOY crop damage, phytotoxicity rating (0-100 scale)",[3]; 125 g ai/ha,0
same,"SOY crop damage, phytotoxicity rating (0-100 scale)",[3]; 250 g ai/ha,10
same,"RICE crop damage, phytotoxicity rating (0-100 scale)",[4]; 125 g ai/ha,0
same,"RICE crop damage, phytotoxicity rating (0-100 scale)",[4]; 250 g ai/ha,0
same,"CORN crop damage, phytotoxicity rating (0-100 scale)",[5]; 125 g ai/ha,0
same,"CORN crop damage, phytotoxicity rating (0-100 scale)",[5]; 250 g ai/ha,0
same,IPOHE phytotoxicity rating (0-100 scale),[6]; 125 g ai/ha,0
same,IPOHE phytotoxicity rating (0-100 scale),[6]; 250 g ai/ha,0
same,DIGSA phytotoxicity rating (0-100 scale),[7]; 125 g ai/ha,0
same,DIGSA phytotoxicity rating (0-100 scale),[7]; 250 g ai/ha,35
same,SETVI phytotoxicity rating (0-100 scale),[8]; 31.3 g ai/ha,0
same,SETVI phytotoxicity rating (0-100 scale),[8]; 62.5 g ai/ha,0
same,SETVI phytotoxicity rating (0-100 scale),[8]; [27],0
same,SETVI phytotoxicity rating (0-100 scale),[8]; [28],0
same,CHEAL phytotoxicity rating (0-100 scale),[9]; 31.3 g ai/ha,90
same,CHEAL phytotoxicity rating (0-100 scale),[9]; 62.5 g ai/ha,90
same,CHEAL phytotoxicity rating (0-100 scale),[9]; [27],95
same,CHEAL phytotoxicity rating (0-100 scale),[9]; [28],95
same,SORHA phytotoxicity rating (0-100 scale),[10]; 125 g ai/ha,0
same,SORHA phytotoxicity rating (0-100 scale),[10]; 250 g ai/ha,0
same,AMARE phytotoxicity rating (0-100 scale),[11]; 31.3 g ai/ha,80
same,AMARE phytotoxicity rating (0-100 scale),[11]; 62.5 g ai/ha,80
same,AMARE phytotoxicity rating (0-100 scale),[11]; [27],80
same,AMARE phytotoxicity rating (0-100 scale),[11]; [28],80
same,CASOB phytotoxicity rating (0-100 scale),[12]; 31.3 g ai/ha,0
same,CASOB phytotoxicity rating (0-100 scale),[12]; 62.5 g ai/ha,0
same,CASOB phytotoxicity rating (0-100 scale),[12]; [27],25
same,CASOB phytotoxicity rating (0-100 scale),[12]; [28],65
same,ABUTH phytotoxicity rating (0-100 scale),[13]; 125 g ai/ha,95
same,ABUTH phytotoxicity rating (0-100 scale),[13]; 250 g ai/ha,98
same,ECHCG phytotoxicity rating (0-100 scale),[14]; 125 g ai/ha,0
same,ECHCG phytotoxicity rating (0-100 scale),[14]; 250 g ai/ha,25
same,AMBEL phytotoxicity rating (0-100 scale),[15]; 31.3 g ai/ha,50
same,AMBEL phytotoxicity rating (0-100 scale),[15]; 62.5 g ai/ha,50
same,AMBEL phytotoxicity rating (0-100 scale),[15]; [27],60
same,AMBEL phytotoxicity rating (0-100 scale),[15]; [28],75
same,"CORN selectivity, phytotoxicity rating (0-100 scale)",[16]; 62.5 g ai/ha,3
same,"CORN crop damage, phytotoxicity rating (0-100 scale)",[16]; 125 g ai/ha,5
same,"CORN crop damage, phytotoxicity rating (0-100 scale)",[16]; 250 g ai/ha,8
same,IPOHE phytotoxicity rating (0-100 scale),[17]; 125 g ai/ha,30
same,IPOHE phytotoxicity rating (0-100 scale),[17]; 250 g ai/ha,50
same,DIGSA phytotoxicity rating (0-100 scale),[18]; 125 g ai/ha,60
same,DIGSA phytotoxicity rating (0-100 scale),[18]; 250 g ai/ha,80
same,SETVI phytotoxicity rating (0-100 scale),[19]; 125 g ai/ha,85
same,SETVI phytotoxicity rating (0-100 scale),[19]; 250 g ai/ha,98
same,CHEAL phytotoxicity rating (0-100 scale),[20]; 125 g ai/ha,100
same,CHEAL phytotoxicity rating (0-100 scale),[20]; 250 g ai/ha,100
same,SORHA phytotoxicity rating (0-100 scale),[21]; 125 g ai/ha,25
same,SORHA phytotoxicity rating (0-100 scale),[21]; 250 g ai/ha,50
same,AMARE phytotoxicity rating (0-100 scale),[22]; 125 g ai/ha,99
same,AMARE phytotoxicity rating (0-100 scale),[22]; 250 g ai/ha,100
same,CASOB phytotoxicity rating (0-100 scale),[23]; 125 g ai/ha,0
same,CASOB phytotoxicity rating (0-100 scale),[23]; 250 g ai/ha,30
same,ABUTH phytotoxicity rating (0-100 scale),[24]; 125 g ai/ha,60
same,ABUTH phytotoxicity rating (0-100 scale),[24]; 250 g ai/ha,70
same,ECHCG phytotoxicity rating (0-100 scale),[25]; 125 g ai/ha,30
same,ECHCG phytotoxicity rating (0-100 scale),[25]; 250 g ai/ha,30
same,AMBEL phytotoxicity rating (0-100 scale),[26]; 125 g ai/ha,0
same,AMBEL phytotoxicity rating (0-100 scale),[26]; 250 g ai/ha,0
